Assays:
Assay type in all cases: functional
[1] = system: COLO 205; assay: Growth inhibition of human COLO205 cells assessed as cell growth at 10^-6 M by sulforhodamine B assay; conditions: read-out: Activity
[2] = system: A549; assay: Growth inhibition of human A549/ATCC cells assessed as cell growth at 10^-6 M by sulforhodamine B assay; conditions: read-out: Activity
[3] = system: UO-31; assay: Growth inhibition of human UO31 cells assessed as cell growth at 10^-6 M by sulforhodamine B assay; conditions: read-out: Activity
[4] = system: PC-3; assay: Growth inhibition of human PC3 cells assessed as cell growth at 10^-4 M by sulforhodamine B assay; conditions: read-out: Activity
[5] = system: NCI-H322M; assay: Growth inhibition of human NCI-H322M cells assessed as cell growth at 10^-8 M by sulforhodamine B assay; conditions: read-out: Activity
[6] = system: MDA-MB-435; assay: Growth inhibition of human MDA-MB-435 cells assessed as cell growth at 10^-4 M by sulforhodamine B assay; conditions: read-out: Activity
[7] = system: IGROV-1; assay: Growth inhibition of human IGROV1 cells assessed as cell growth at 10^-7 M by sulforhodamine B assay; conditions: read-out: Activity
[8] = system: SN12C; assay: Growth inhibition of human SN12C cells by sulforhodamine B assay
[9] = system: 786-0; assay: Growth inhibition of human 786-0 cells by sulforhodamine B assay
[10] = system: M14; assay: Growth inhibition of human M14 cells assessed as cell growth at 10^-4 M by sulforhodamine B assay; conditions: read-out: Activity
[11] = system: MOLT-4; assay: Growth inhibition of human MOLT4 cells assessed as cell growth at 10^-8 M by sulforhodamine B assay; conditions: read-out: Activity
[12] = system: U-251; assay: Growth inhibition of human U251 cells by sulforhodamine B assay
[13] = system: NCI-H460; assay: Growth inhibition of human NCI-H460 cells by sulforhodamine B assay
[14] = Growth inhibition of human NCI-ADR-RES cells assessed as cell growth at 10^-8 M by sulforhodamine B assay; conditions: read-out: Activity
[15] = system: SNB-75; assay: Growth inhibition of human SNB75 cells by sulforhodamine B assay
[16] = read-out: LC50 (the source's name)
[17] = read-out: pLC50 (the source's name) (converted)

Q: Which results are given for `C/C=C(/C)C(=O)O[C@@H]1CC(C)(C)C[C@H]2C3=CC[C@@H]4[C@@]5(C)CCC(=O)C(C)(C)[C@@H]5CC[C@@]4(C)[C@]3(C)CC[C@@]12C(=O)O` [LANTADENE A]?
A: growth at 1 µM [1]: 101%; growth at 1 µM [2]: 80%; growth at 1 µM [3]: 87%; growth at 100 µM [4]: 13%; growth at 0.01 µM [5]: 99%; growth at 100 µM [6]: 25%; growth at 0.1 µM [7]: 111%; GI50 ([8]; read-out: GI50): 3.47 µM; CC50 [8, 16]: > 100 µM; TGI ([8]; read-out: TGI): > 100 µM; GI50 ([8]; read-out: pGI50 (converted)): 3.47 µM; CC50 [8, 17]: > 100 µM; TGI ([8]; read-out: pTGI (converted)): > 100 µM; GI50 ([9]; read-out: GI50): 3.47 µM; CC50 [9, 16]: > 100 µM; TGI ([9]; read-out: TGI): > 100 µM; GI50 ([9]; read-out: pGI50 (converted)): 3.47 µM; CC50 [9, 17]: > 100 µM; TGI ([9]; read-out: pTGI (converted)): > 100 µM; growth at 100 µM [10]: 23%; growth at 0.01 µM [11]: 104%; GI50 ([12]; read-out: GI50): 3.99 µM; CC50 [12, 16]: > 100 µM; TGI ([12]; read-out: TGI): > 100 µM; GI50 ([12]; read-out: pGI50 (converted)): 3.98 µM; CC50 [12, 17]: > 100 µM; TGI ([12]; read-out: pTGI (converted)): > 100 µM; GI50 ([13]; read-out: GI50): 3.59 µM; LC50 ([13]; read-out: LC50): > 100 µM; TGI ([13]; read-out: TGI): > 100 µM; GI50 ([13]; read-out: pGI50 (converted)): 3.63 µM; LC50 ([13]; read-out: pLC50 (converted)): > 100 µM; TGI ([13]; read-out: pTGI (converted)): > 100 µM; growth at 0.01 µM [14]: 104%; GI50 ([15]; read-out: GI50): 14.2 µM; CC50 [15, 16]: > 100 µM; TGI ([15]; read-out: TGI): > 100 µM; GI50 ([15]; read-out: pGI50 (converted)): 14.1 µM; CC50 [15, 17]: > 100 µM; TGI ([15]; read-out: pTGI (converted)): > 100 µM
